From article PMC12030706, “Novel ^177Lu-Labeled [Thz^14]Bombesin(6–14) Derivatives with Low Pancreas Accumulation for Targeting Gastrin-Releasing Peptide Receptor-Expressing Cancer” (Pharmaceuticals, 2025)

What was measured:
[1] = LogD7.4 measurement, shake flask method; type: physicochemical; settings: n-octanol/DPBS pH 7.4, n = 3
Experimental: The logD7.4 values of all the ^177Lu-labeled GRPR-targeted ligands were measured using the shake flask method as previously reported. An aliquot (~2 MBq) of the radiolabeled product was added to a mixture of n-octanol (3 mL) and DPBS (3 mL, pH 7.4), followed by 1 min vortexing and 15 min centrifugation at 5000 rpm. Samples of the n-octanol (1 mL) and buffer (1 mL) layers were collected, and the activity was counted using a gamma counter. The logD7.4 values were calculated using the following equation: logD7.4=log10[countsn−octanolphase/countsbutterphase]

[2] = tested on: PC-3 tumor-bearing NRG mouse; assay: Longitudinal SPECT/CT imaging in PC-3 tumor-bearing mice; type: in vivo, mice (NRG); settings: SPECT/CT images
Experimental: The PC-3 tumor-bearing mice were sedated (2.5% isoflurane in O2) and injected with ^177Lu-labeled ligands (15–32 MBq) through a lateral caudal tail vein. […] At each time point, a 5 min CT scan was obtained using 615 μA and 60 kV parameters for localization and attenuation, followed by 2 × 30 min static SPECT scans acquired in list mode with an energy window centered around 208 keV. The MILabs U-SPECT II reconstruction software (version 8.00) was used to reconstruct data, and the images were decay corrected to the time of injection with PMOD v 3.402 (PMOD Technologies GmbH, Fallanden, Switzerland).

[3] = tested on: PC-3 tumor-bearing mice; assay: Ex vivo biodistribution in PC-3 tumor-bearing mice
Experimental: (§1) SPECT/CT imaging experiments were performed using an MILabs (Houten, The Netherlands) U-SPECT-II/CT scanner with a custom-made ultra-high-sensitivity big mouse collimator (2 mm pinhole size) following previously reported procedures. […] Male NOD.Cg-Rag1^tm1Mom Il2rg^tm1Wjl/SzJ (NRG) mice were used in these experiments because of their immunodeficient characteristics and excellent radiation tolerance. Mice were anaesthetized and subcutaneously implanted with 5 × 10^6 PC-3 prostate cancer cells (100 µL; 1:1 PBS/Matrigel) behind the left shoulder. SPECT/CT imaging and biodistribution studies were performed once the tumors reached a diameter of 5–8 mm, typically after approximately 4 weeks of growth.
(§2) For ex vivo biodistribution studies, the mice were injected with ~2–6 MBq of the radioligand. […] Blocking study was conducted at 1 h post-injection via co-injection of the radioligand with 100 μg of [D-Phe^6,Leu-NHEt^13,des-Met^14]Bombesin(6–14). Organs/tissues of interested were collected, weighed, and measured using an automatic gamma counter.

[4] = Ex vivo biodistribution in PC-3 tumor-bearing mice; settings: mouse; for tissue uptake at 4 h: 4 h post-injection; for tissue uptake at 24 h: 24 h post-injection; for tissue uptake at 72 h: 72 h post-injection; for tissue uptake at 120 h: 120 h post-injection
Experimental: as §1, §2

[5] = 1 h post-injection, 100 µg [D-Phe6,Leu-NHEt13,des-Met14]Bombesin(6–14)
[6] = PC-3 tumor, Uptake in PC-3 tumor
[7] = adrenal glands, Uptake in adrenal glands

For `CC(C)C[C@@H](CN1CSC[C@H]1C(N)=O)NC(=O)[C@H](Cc1cnc[nH]1)NC(=O)CN(C)C(=O)[C@@H](NC(=O)[C@H](C)NC(=O)[C@H](Cc1c[nH]c2ccccc12)NC(=O)[C@H](CCC(N)=O)NC(=O)[C@@H](Cc1ccccc1)NC(=O)CN1CCC(NC(=O)CN2CCN(CC(=O)O)CCN(CC(=O)O)CCN(CC(=O)O)CC2)CC1)C(C)C` [[^177Lu]Lu-TacsBOMB5, metal not drawn], the logD [1] was -2.53 ± 0.2, the excretion pathway [2] was “excreted mainly via the renal pathway” and the “reduction of average pancreas uptake by co-injection of blocker” value [3, 5] was 45%. The “reduction of average tumor uptake by co-injection of blocker” value [3, 5] was 71%, the “uptake in PC-3 tumor xenografts cleared within 24 h” value ([3]; relative to 1 h uptake) was “Approximately 80%” and the tissue uptake at 1 h ([4]; PC-3 tumor, 100 ug, Uptake in PC-3 tumor, 1 h blocked (co-injected with 100 µg [D-Phe6,Leu-NHEt13,des-Met14]Bombesin(6-14))) was 2.53 ± 0.34 %ID/g. For the same compound, the tissue uptake at 1 h ([4]; PC-3 tumor, Uptake in PC-3 tumor, 1 h post-injection) was 8.71 ± 0.53 %ID/g, the tissue uptake at 4 h [4, 6] was 4.8 ± 0.32 %ID/g and the tissue uptake at 24 h [4, 6] was 1.77 ± 0.27 %ID/g. The tissue uptake at 72 h [4, 6] was 1.09 ± 0.19 %ID/g, the tissue uptake at 120 h [4, 6] was < 1 %ID/g and the tissue uptake at 1 h ([4]; adrenal glands, 100 ug, Uptake in adrenal glands, 1 h blocked (co-injected with 100 µg [D-Phe6,Leu-NHEt13,des-Met14]Bombesin(6-14))) was 0.17 ± 0.04 %ID/g. The tissue uptake at 1 h ([4]; adrenal glands, Uptake in adrenal glands, 1 h post-injection) was 0.61 ± 0.28 %ID/g, the tissue uptake at 4 h [4, 7] was 0.29 ± 0.07 %ID/g and the tissue uptake at 24 h [4, 7] was 0.17 ± 0.02 %ID/g. The tissue uptake at 72 h [4, 7] was 0.18 ± 0.12 %ID/g, the tissue uptake at 120 h [4, 7] was 0.12 ± 0.08 %ID/g and the tissue uptake at 1 h ([4]; blood, 100 ug, Uptake in blood, 1 h blocked (co-injected with 100 µg [D-Phe6,Leu-NHEt13,des-Met14]Bombesin(6-14))) was 0.45 ± 0.11 %ID/g. It also gave a tissue uptake at 1 h ([4]; blood, Uptake in blood, 1 h post-injection) of 1.77 ± 0.14 %ID/g, a tissue uptake at 24 h ([4]; blood, Uptake in blood) of 0.21 ± 0.02 %ID/g and a tissue uptake at 72 h ([4]; blood, Uptake in blood) of 0.07 ± 0.01 %ID/g. For the same compound, the tissue uptake at 1 h ([4]; bone, 100 ug, Uptake in bone, 1 h blocked (co-injected with 100 µg [D-Phe6,Leu-NHEt13,des-Met14]Bombesin(6-14))) was 0.06 ± 0.03 %ID/g, the tissue uptake at 1 h ([4]; bone, Uptake in bone, 1 h post-injection) was 0.12 ± 0.02 %ID/g and the tissue uptake at 4 h ([4]; bone, Uptake in bone) was 0.09 ± 0.03 %ID/g. The tissue uptake at 24 h ([4]; bone, Uptake in bone) was 0.07 ± 0.02 %ID/g, the tissue uptake at 72 h ([4]; bone, Uptake in bone) was 0.07 ± 0.01 %ID/g and the tissue uptake at 120 h ([4]; bone, Uptake in bone) was 0.07 ± 0.01 %ID/g. For the same compound, the tissue uptake at 1 h ([4]; brain, 100 ug, Uptake in brain, 1 h blocked (co-injected with 100 µg [D-Phe6,Leu-NHEt13,des-Met14]Bombesin(6-14))) was 0.02 %ID/g, the tissue uptake at 1 h ([4]; brain, Uptake in brain, 1 h post-injection) was 0.04 %ID/g and the tissue uptake at 4 h ([4]; brain, Uptake in brain) was 0.02 %ID/g. It also gave a tissue uptake at 1 h ([4]; fat, 100 ug, Uptake in fat, 1 h blocked (co-injected with 100 µg [D-Phe6,Leu-NHEt13,des-Met14]Bombesin(6-14))) of 0.06 ± 0.01 %ID/g, a tissue uptake at 1 h ([4]; fat, Uptake in fat, 1 h post-injection) of 0.15 ± 0.04 %ID/g and a tissue uptake at 4 h ([4]; fat, Uptake in fat) of 0.06 ± 0.01 %ID/g. It also gave a tissue uptake at 72 h ([4]; fat, Uptake in fat) of 0.02 ± 0.01 %ID/g, a tissue uptake at 120 h ([4]; fat, Uptake in fat) of 0.01 ± 0.01 %ID/g and a tissue uptake at 1 h ([4]; heart, 100 ug, Uptake in heart, 1 h blocked (co-injected with 100 µg [D-Phe6,Leu-NHEt13,des-Met14]Bombesin(6-14))) of 0.15 ± 0.02 %ID/g. The tissue uptake at 1 h ([4]; heart, Uptake in heart, 1 h post-injection) was 0.45 ± 0.06 %ID/g, the tissue uptake at 4 h ([4]; heart, Uptake in heart) was 0.21 ± 0.03 %ID/g and the tissue uptake at 24 h ([4]; heart, Uptake in heart) was 0.09 ± 0.01 %ID/g. It also gave a tissue uptake at 72 h ([4]; heart, Uptake in heart) of 0.05 ± 0.01 %ID/g, a tissue uptake at 120 h ([4]; heart, Uptake in heart) of 0.04 ± 0.01 %ID/g and a tissue uptake at 4 h ([4]; in vivo, Uptake in blood) of 0.85 ± 0.03 %ID/g. For the same compound, the tissue uptake at 24 h ([4]; in vivo, Uptake in pancreas) was 0.08 ± 0.02 %ID/g, the tissue uptake at 72 h ([4]; in vivo, Uptake in testes) was 0.08 ± 0.04 %ID/g and the tissue uptake at 120 h ([4]; in vivo, Uptake in testes) was 0.08 ± 0.02 %ID/g.
